The conditions of series [1]: cited from earlier work.
A further series deals with human erythrocytes. Nature of the series: hemolytic assay. The format is cell-based. How it is done:
The hemolytic potential of the lead peptides was determined following an established erythrocyte hemolysis protocol. In brief, 15 mL of venous blood was drawn from a healthy individual, centrifuged at 3000 rpm for 10 min, and the plasma was discarded. The residual pellet (RBCs) was washed 3 times with PBS (pH 7.4, 0.1 M), and the resultant pellet was resuspended in PBS in a 1:10 ratio. Subsequently, 0.9 mL of the RBC suspension was incubated with 0.1 mL of peptides at various concentrations, a negative control (100 μL PBS + 900 μL RBC suspension), and a positive control (100 μL of 0.5% Triton-X-100 + 900 μL of RBC suspension), and incubated at 37 °C for 24 h. Post incubation, all tubes were centrifuged at 3000 rpm for 10 min. 0.1 mL of the supernatant was then transferred to 96-well plates, and the absorbance of the supernatant was read at 540 nm. […] The corrected values were calculated as Acontrol=Apos−Aneg and Asample=Atest−Aneg where Apos , Aneg and Atest are the absorbance values of the positive control, negative control, and peptide-treated sample (given concentration), respectively.

Series [2] in a line: DPPH radical scavenging assay. The protocol: The antioxidant assays of the test compounds were conducted in vitro, following previous studies, using the standard DPPH, ABTS, and superoxide radical scavenging assays. Regarding the DPPH assay, 0.2 mL of the test samples (peptides 1 and 2) at various concentrations was added to 1.2 mL of a 40 μg/mL DPPH solution in methanol. The mixtures were shaken vigorously and incubated in the dark for 20 min, after which the reduction in DPPH absorption was measured at 517 nm. The samples without DPPH and with methanol served as blanks. Ascorbic acid was used as the positive control.

A short description of series [3]: ABTS radical scavenging assay. How it is done: Concerning the ABTS assay, the ABTS^•+ radical cation was generated. Subsequently, 0.05 mL of the test samples (peptides 1 and 2) at various concentrations was mixed with 4.00 mL of ABTS^•+ solution and kept in the dark at room temperature for two h. The absorbance was determined at 734 nm using a UV–Vis Spectrophotometer (UV-1280 Shimadzu, Germany). Ascorbic acid was used as the positive control, and samples without the ABTS radical solution served as blanks. The results were expressed as the effective concentration (EC50) values.

Series [4] is described as follows: superoxide radical scavenging assay (NBT). The protocol: After 10 min of incubation at 25 °C in the dark, absorbance was recorded at 560 nm. Samples without NBT served as blanks, and ascorbic acid was used as the positive control. The results were expressed as the effective concentration (EC50) values.
In another series the target is human aldose reductase. On the set-up: method as in doi:10.1016/j.fbio.2025.107775. The note with it: cited from earlier work.
For series [5] the following is noted: within 24 h at 5 mg/mL; cited from earlier work.
Series [6] deals with aldose reductase. On the set-up: method as in doi:10.3390/separations9090262. The note with it: cited from earlier work.
Series [7] in a line: methylglyoxal scavenging (Maillard reaction model, DNPH assay). How it is done: This preliminary assay was conducted to evaluate the methylglyoxal scavenging activity of peptides derived from coconut milk. The Maillard reaction was employed to assess the scavenging potential of peptides against methylglyoxal, using parameters as outlined in previous studies by Risum et al., Zhu et al., and Brings et al., with modifications. The reaction mixture (1 mL) consisted of both peptides at different concentrations, methylglyoxal (0.01 mM), phosphate buffer, and water. It was incubated at two temperatures: room temperature (followed by immediate termination) and 37 °C (for 2 h). Following the incubation time, the reaction was terminated by adding 10 μL of glacial acetic acid. Creatine was used as a positive control. The experiments were performed in triplicate.
The scavenging potential of the peptides against methylglyoxal was determined using the DNPH assay. In brief, 25 μL of the sample was mixed with 975 μL of water and 1000 μL of DNPH reagent. The reaction mixture was shaken well and incubated at 37 °C for 10 min. Following incubation, the reaction was terminated by adding 1000 μL of 1.5 N NaOH, and the absorbance of the yellowish-orange complex was measured at 525 nm using […]: the MGO blank and the Creatine blank. Scavenging efficiency was calculated using Equations (4) and (5).(4) ACORR=Asample−Ablank (5) MGOscavenging=1−Acorr/AMGO,corr·100 where Asample is the absorbance of the reaction mixture containing methylglyoxal and the test compound (peptide or creatine), Ablank is the absorbance of the reagent blank (without methylglyoxal and without test compound), and AMGO,corr is the blank-corrected absorbance of the methylglyoxal blank (AMGO-Ablank). The creatine control was processed in the same way as the peptide samples.

A further series has as its target α-glucosidase. Further details: method as in PMID 31139399. To be noted: soy protein-derived peptides; cited from earlier work.
The target in series [8] is aldose reductase (Homo sapiens, UniProt P15121). Nature of the series: aldose reductase inhibition assay. The series is classed as biochemical. The protocol:
The aldose reductase inhibition assay was performed according to the method described by Alharbi et al.. Briefly, a 1 mL reaction mixture comprised 0.87 mL of 100 mM Sodium phosphate buffer (pH 6.2), 0.05 mL of 3 mM NADPH, 0.01 mL of human aldose reductase (recombinant, 0.2 U/mL), with the enzyme’s activity being 0.2 IU/mL, and 0.02 mL of test compounds (designated as peptide 1 and peptide 2) at different concentrations. 0.05 mL of the substrate (DL-glyceraldehyde, five mM) was incubated in the reaction mixture for 3 min at 25 °C. Enzyme activity was determined by measuring the reduction in NADPH absorption at 340 nm over 10 min. […] Aldose reductase inhibitory activity was expressed as the percentage of inhibition.

For series [9], the target named is T1, porcine pancreatic α-amylase (Sus scrofa, UniProt P00690).
T1 construct: purchased SRL (Sisco Research Laboratories)
T1 sequence (P00690 16-511): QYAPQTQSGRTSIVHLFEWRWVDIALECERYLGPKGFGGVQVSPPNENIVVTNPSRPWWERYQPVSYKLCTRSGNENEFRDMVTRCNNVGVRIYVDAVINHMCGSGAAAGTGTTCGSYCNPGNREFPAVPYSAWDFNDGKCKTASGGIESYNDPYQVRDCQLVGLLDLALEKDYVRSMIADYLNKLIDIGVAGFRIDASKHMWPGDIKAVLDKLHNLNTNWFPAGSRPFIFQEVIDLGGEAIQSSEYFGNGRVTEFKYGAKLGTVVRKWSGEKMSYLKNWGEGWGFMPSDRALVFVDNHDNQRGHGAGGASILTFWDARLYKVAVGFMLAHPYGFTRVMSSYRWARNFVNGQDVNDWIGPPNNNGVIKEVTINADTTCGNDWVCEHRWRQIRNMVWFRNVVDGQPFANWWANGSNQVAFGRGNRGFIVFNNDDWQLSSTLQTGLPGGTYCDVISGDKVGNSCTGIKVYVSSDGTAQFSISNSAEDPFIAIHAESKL
Nature of the series: α-amylase inhibition assay. The series is classed as biochemical. How it is done: The enzymatic reaction was initiated by adding the starch substrate and allowed to proceed for 15 min. The reaction was then terminated by adding the 3,5-dinitrosalicylic acid (DNSA) reagent, and the mixture was heated to boiling for 5 min. […] IC50 values were obtained from plots of percentage inhibition versus sample concentration.

Like-named read-outs stand apart in the source and are kept apart here. Ends that are not written are not given here.

For the compound LLLRW, the “superoxide anion radical scavenging EC50” value in series [1] was 430 ± 12 µg/mL.
Triton-X-100 [reference compound]: in the series on human erythrocytes (human RBC, 37 °C, 24 h), the “Hemolytic Assay (HC50)” value is on record as 105.25 ± 0.17 µg/mL and the “Hemolytic Assay (HC50) (value in bracket)” value is recorded as 162.67 µM. Besides, the “Hemolytic Assay (HC50)” value in the series on human erythrocytes (human RBC, 37 °C, 24 h, listed as Triton X-100) is on record as 105.25 µg/mL.
On to `O=C1O[C@H]([C@@H](O)CO)C(O)=C1O` [Ascorbic acid, reference compound], for which the “DPPH Radical Scavenging Assay EC50” value in series [2] amounted to 28.65 ± 0.17 µg/mL. Further, the EC50 in series [2] (read-out: DPPH Radical Scavenging Assay EC50 (value in bracket) (converted)) was 163 µM; in [3] (read-out: ABTS Radical Scavenging Assay EC50 (value in bracket) (converted)), 129 µM; in series [4] (read-out: Superoxide Radical Scavenging Assay EC50 (value in bracket) (converted)), 328 µM. The “ABTS Radical Scavenging Assay EC50” value in series [3] came out at 22.74 ± 0.27 µg/mL. Further, the “Superoxide Radical Scavenging Assay EC50” value in series [4] is on record as 57.71 ± 0.16 µg/mL.
For the compound `O=C(O)Cn1c(=O)n(Cc2ccc(Br)cc2F)c(=O)c2ccc(Cl)cc21` [zenarestat], the “human aldose reductase IC50” value on human aldose reductase was 59.68 ± 0.47 µg/mL.
Consider “VVFPGCPE [Ginkgo biloba peptide, literature]”, for which the methylglyoxal scavenging entry in series [5] is recorded as “up to 66.50%”.
`C[C@@H]1O[C@@H](OC[C@H]2O[C@@H](Oc3c(-c4ccc(O)c(O)c4)oc4cc(O)cc(O)c4c3=O)[C@H](O)[C@@H](O)[C@@H]2O)[C@H](O)[C@H](O)[C@H]1O` [rutin]: on aldose reductase [6], the “aldose reductase IC50” value was 7.86 ± 0.33 µg/mL.
Turning to `CN(CC(=O)O)C(=N)N` [Creatine, reference compound], the “Methylglyoxal Scavenging EC50 at 37 °C, 2 h” value in series [7] (37 °C, 2 h) is on record as 230.05 ± 0.34 µg/mL. In addition, the EC50 is 1750 µM in series [7] (read-out: Methylglyoxal Scavenging EC50 at 37 °C, 2 h (value in bracket), 37 °C, 2 h) and 1750 µM in series [7] (room temperature, immediate termination, read-out: Methylglyoxal Scavenging EC50 at RT (value in bracket) (converted)).
Take GDMNP: the “superoxide anion radical scavenging EC50” value in [1] was 400 ± 8 µg/mL.
On to “LPLPVLK [soy protein-derived peptide, literature]”, for which, at α-glucosidase, the IC50 is 237.4 ± 0.52 µM.
For the compound MQIFVK [Peptide 1, MQIFVK], the IC50 on aldose reductase [8] (mean ± SD, read-out: Aldose Reductase Inhibition IC50 (converted)) was 29.4 µM; at aldose reductase [8] (read-out: Aldose Reductase Inhibition IC50 (value in bracket) (converted)), 29.4 µM; in series [9] (mean ± SD, read-out: α-Amylase Inhibition IC50 (converted)), 115 µM; in [9] (read-out: α-Amylase Inhibition IC50 (value in bracket) (converted)), 115 µM. Besides, the “Hemolytic Assay (HC50)” value in the series on human erythrocytes was 220.85 ± 0.20 µg/mL. The “Hemolytic Assay (HC50) (value in bracket)” value with human erythrocytes (red cells of human, 24 h) amounted to 288.70 µM.
With SWLRL, on α-glucosidase, the IC50 is 182.1 ± 0.74 µM.
For the compound YFYPEL, in series [1], the superoxide scavenging activity is 65.8 µg/mL. For the same compound, the EC50 in series [1] (read-out: superoxide scavenging activity (value in bracket)) is 79.2 µM.
In the case of WLRL, the IC50 at α-glucosidase is 162.3 ± 0.74 µM.

What is called IC50 is the concentration that inhibits the measured activity by half.
